Data: US8153627B2, “Quinazoline linked pyrrolo[2,1-C][1, 4]benzodiazepine hybrids as potential anticancer agents and process for the preparation thereof” (Council of Scientific & Industrial Research, priority 2008, dated 2012)

test system: CCRF-CEM; assay: Cytotoxicity SRB assay, CCRF-CEM; type: cell-based, human; conditions: Leukemia CCRF-CEM, 48 h exposure
Experimental: (§1) 5a, 5c and 5d was evaluated for in vitro anticancer activity against sixty human tumor cells derived from nine cancer types leukemia, non-small-cell lung, colon, CNS, melanoma, ovarian, prostate, and breast cancer) as shown in (Table 1 and 2). For the compound, dose response curves for each cell line were measured at a minimum of five concentrations at 10 fold dilutions. A protocol of 48 h continuous drug exposure was used and a sulforhodamine B (SRB) protein assay was used to estimate cell viability or growth. The concentration causing 50% cell growth inhibition (GI50), total cell growth inhibition (TGI 0% growth) and 50% cell death (LC50, −50% growth) compared with the control was calculated.

Row | Structure (SMILES) | GI50 [µM]
1 | COc1cc2c(cc1OCCCN1CCN(c3ncnc4ccccc34)CC1)N=C[C@@H]1CCCN1C2=O [Compound 5a] | 12

test system: HL-60 (TB); assay: Cytotoxicity SRB assay, HL-60 (TB); type: cell-based, human; conditions: Leukemia HL-60 (TB), 48 h exposure
Experimental: as §1

Row | Structure (SMILES) | GI50 [µM]
2 | COc1cc2c(cc1OCCCN1CCN(c3ncnc4ccccc34)CC1)N=C[C@@H]1CCCN1C2=O [Compound 5a] | 13

test system: RPMI-8226; assay: Cytotoxicity SRB assay, RPMI-8226; type: cell-based, human; conditions: Leukemia RPMI-8226, 48 h exposure
Experimental: as §1

Row | Structure (SMILES) | GI50 [µM]
3 | COc1cc2c(cc1OCCCN1CCN(c3ncnc4ccccc34)CC1)N=C[C@@H]1CCCN1C2=O [Compound 5a] | 10

test system: NCI-H226; assay: Cytotoxicity SRB assay, NCI-H226; type: cell-based, human; conditions: Non-small cell lung NCI-H226, 48 h exposure
Experimental: as §1

Row | Structure (SMILES) | GI50 [µM]
4 | COc1cc2c(cc1OCCCN1CCN(c3ncnc4ccccc34)CC1)N=C[C@@H]1CCCN1C2=O [Compound 5a] | 10

test system: NCI-H23; assay: Cytotoxicity SRB assay, NCI-H23; type: cell-based, human; conditions: Non-small cell lung NCI-H23, 48 h exposure
Experimental: as §1

Row | Structure (SMILES) | GI50 [µM]
5 | COc1cc2c(cc1OCCCN1CCN(c3ncnc4ccccc34)CC1)N=C[C@@H]1CCCN1C2=O [Compound 5a] | 13.9

test system: NCI-H522; assay: Cytotoxicity SRB assay, NCI-H522; type: cell-based, human; conditions: Non-small cell lung NCI-H522, 48 h exposure
Experimental: as §1

Row | Structure (SMILES) | GI50 [µM]
6 | COc1cc2c(cc1OCCCN1CCN(c3ncnc4ccccc34)CC1)N=C[C@@H]1CCCN1C2=O [Compound 5a] | 10.4

test system: HCT-116; assay: Cytotoxicity SRB assay, HCT-116; type: cell-based, human; conditions: Colon HCT-116, 48 h exposure
Experimental: as §1

Row | Structure (SMILES) | GI50 [µM]
7 | COc1cc2c(cc1OCCCN1CCN(c3ncnc4ccccc34)CC1)N=C[C@@H]1CCCN1C2=O [Compound 5a] | 11.9

test system: HCT-15; assay: Cytotoxicity SRB assay, HCT-15; type: cell-based, human; conditions: Colon HCT-15, 48 h exposure
Experimental: as §1

Row | Structure (SMILES) | GI50 [µM]
8 | COc1cc2c(cc1OCCCN1CCN(c3ncnc4ccccc34)CC1)N=C[C@@H]1CCCN1C2=O [Compound 5a] | 27.5

test system: SW-620; assay: Cytotoxicity SRB assay, SW-620; type: cell-based, human; conditions: Colon SW-620, 48 h exposure
Experimental: as §1

Row | Structure (SMILES) | GI50 [µM]
9 | COc1cc2c(cc1OCCCN1CCN(c3ncnc4ccccc34)CC1)N=C[C@@H]1CCCN1C2=O [Compound 5a] | 11.7

test system: SF-539; assay: Cytotoxicity SRB assay, SF-539; type: cell-based, human; conditions: CNS SF-539, 48 h exposure
Experimental: as §1

Row | Structure (SMILES) | GI50 [µM]
10 | COc1cc2c(cc1OCCCN1CCN(c3ncnc4ccccc34)CC1)N=C[C@@H]1CCCN1C2=O [Compound 5a] | 12.6

test system: U251; assay: Cytotoxicity SRB assay, U251; type: cell-based, human; conditions: CNS U251, 48 h exposure
Experimental: as §1

Row | Structure (SMILES) | GI50 [µM]
11 | COc1cc2c(cc1OCCCN1CCN(c3ncnc4ccccc34)CC1)N=C[C@@H]1CCCN1C2=O [Compound 5a] | 10

test system: LOX IMVI; assay: Cytotoxicity SRB assay, LOX IMVI; type: cell-based, human; conditions: Melanoma LOX IMVI, 48 h exposure
Experimental: as §1

Row | Structure (SMILES) | GI50 [µM]
12 | COc1cc2c(cc1OCCCN1CCN(c3ncnc4ccccc34)CC1)N=C[C@@H]1CCCN1C2=O [Compound 5a] | 10

test system: MALME-3M; assay: Cytotoxicity SRB assay, MALME-3M; type: cell-based, human; conditions: Melanoma MALME-3M, 48 h exposure
Experimental: as §1

Row | Structure (SMILES) | GI50 [µM]
13 | COc1cc2c(cc1OCCCN1CCN(c3ncnc4ccccc34)CC1)N=C[C@@H]1CCCN1C2=O [Compound 5a] | 18.2

test system: M14; assay: Cytotoxicity SRB assay, M14; type: cell-based, human; conditions: Melanoma M14, 48 h exposure
Experimental: as §1

Row | Structure (SMILES) | GI50 [µM]
14 | COc1cc2c(cc1OCCCN1CCN(c3ncnc4ccccc34)CC1)N=C[C@@H]1CCCN1C2=O [Compound 5a] | 10.1

test system: SK-MEL-5; assay: Cytotoxicity SRB assay, SK-MEL-5; type: cell-based, human; conditions: Melanoma SK-MEL-5, 48 h exposure
Experimental: as §1

Row | Structure (SMILES) | GI50 [µM]
15 | COc1cc2c(cc1OCCCN1CCN(c3ncnc4ccccc34)CC1)N=C[C@@H]1CCCN1C2=O [Compound 5a] | 10

test system: UACC-257; assay: Cytotoxicity SRB assay, UACC-257; type: cell-based, human; conditions: Melanoma UACC-257, 48 h exposure
Experimental: as §1

Row | Structure (SMILES) | GI50 [µM]
16 | COc1cc2c(cc1OCCCN1CCN(c3ncnc4ccccc34)CC1)N=C[C@@H]1CCCN1C2=O [Compound 5a] | 70.9

test system: UACC-62; assay: Cytotoxicity SRB assay, UACC-62; type: cell-based, human; conditions: Melanoma UACC-62, 48 h exposure
Experimental: as §1

Row | Structure (SMILES) | GI50 [µM]
17 | COc1cc2c(cc1OCCCN1CCN(c3ncnc4ccccc34)CC1)N=C[C@@H]1CCCN1C2=O [Compound 5a] | 10

test system: OVCAR-3; assay: Cytotoxicity SRB assay, OVCAR-3; type: cell-based, human; conditions: Ovarian OVCAR-3, 48 h exposure
Experimental: as §1

Row | Structure (SMILES) | GI50 [µM]
18 | COc1cc2c(cc1OCCCN1CCN(c3ncnc4ccccc34)CC1)N=C[C@@H]1CCCN1C2=O [Compound 5a] | 10

test system: 786-0; assay: Cytotoxicity SRB assay, 786-0; type: cell-based, human; conditions: Renal 786-0, 48 h exposure
Experimental: as §1

Row | Structure (SMILES) | GI50 [µM]
19 | COc1cc2c(cc1OCCCN1CCN(c3ncnc4ccccc34)CC1)N=C[C@@H]1CCCN1C2=O [Compound 5a] | 11.8

test system: A498; assay: Cytotoxicity SRB assay, A498; type: cell-based, human; conditions: Renal A498, 48 h exposure
Experimental: as §1

Row | Structure (SMILES) | GI50 [µM]
20 | COc1cc2c(cc1OCCCN1CCN(c3ncnc4ccccc34)CC1)N=C[C@@H]1CCCN1C2=O [Compound 5a] | 16.1

test system: ACHN; assay: Cytotoxicity SRB assay, ACHN; type: cell-based, human; conditions: Renal ACHN, 48 h exposure
Experimental: as §1

Row | Structure (SMILES) | GI50 [µM]
21 | COc1cc2c(cc1OCCCN1CCN(c3ncnc4ccccc34)CC1)N=C[C@@H]1CCCN1C2=O [Compound 5a] | 43.4

test system: CAKI-1; assay: Cytotoxicity SRB assay, CAKI-1; type: cell-based, human; conditions: Renal CAKI-1, 48 h exposure
Experimental: as §1

Row | Structure (SMILES) | GI50 [µM]
22 | COc1cc2c(cc1OCCCN1CCN(c3ncnc4ccccc34)CC1)N=C[C@@H]1CCCN1C2=O [Compound 5a] | 13.6

test system: TK-10; assay: Cytotoxicity SRB assay, TK-10; type: cell-based, human; conditions: Renal TK-10, 48 h exposure
Experimental: as §1

Row | Structure (SMILES) | GI50 [µM]
23 | COc1cc2c(cc1OCCCN1CCN(c3ncnc4ccccc34)CC1)N=C[C@@H]1CCCN1C2=O [Compound 5a] | 16.6

test system: UO-31; assay: Cytotoxicity SRB assay, UO-31; type: cell-based, human; conditions: Renal UO-31, 48 h exposure
Experimental: as §1

Row | Structure (SMILES) | GI50 [µM]
24 | COc1cc2c(cc1OCCCN1CCN(c3ncnc4ccccc34)CC1)N=C[C@@H]1CCCN1C2=O [Compound 5a] | 13.2

test system: NCI/ADR-RES; assay: Cytotoxicity SRB assay, NCI/ADR-RES; type: cell-based, human; conditions: Breast NCI/ADR-RES, 48 h exposure
Experimental: as §1

Row | Structure (SMILES) | GI50 [µM]
25 | COc1cc2c(cc1OCCCN1CCN(c3ncnc4ccccc34)CC1)N=C[C@@H]1CCCN1C2=O [Compound 5a] | 13.4

test system: MDA-MB-231/ATCC; assay: Cytotoxicity SRB assay, MDA-MB-231/ATCC; type: cell-based, human; conditions: Breast MDA-MB-231/ATCC, 48 h exposure
Experimental: as §1

Row | Structure (SMILES) | GI50 [µM]
26 | COc1cc2c(cc1OCCCN1CCN(c3ncnc4ccccc34)CC1)N=C[C@@H]1CCCN1C2=O [Compound 5a] | 11.6

test system: sixty human tumor cells derived from nine cancer types; assay: NCI sixty human tumor cell line screen (SRB), all lines / mean graph midpoints; type: cell-based; conditions: 50% cell death; human tumor cell lines; 48 h exposure, SRB
Experimental: as §1
The mean graph mid points of log10 TGI and log10 LC50 have shown similar pattern to the log10 GI50 mean graph mid points.

Row | Structure (SMILES) | Log10 LC50 mean graph midpoint (MG_MID)
27 | COc1cc2c(cc1OCCCN1CCN(c3ncnc4ccccc34)CC1)N=C[C@@H]1CCCN1C2=O [Compound 5a] | −4.99

same assay, conditions: human tumor cell lines; 48 h exposure, SRB

Row | Structure (SMILES) | Log10 GI50 mean graph midpoint (MG_MID)
28 | COc1cc2c(cc1OCCCN1CCN(c3ncnc4ccccc34)CC1)N=C[C@@H]1CCCN1C2=O [Compound 5a] | −7.68

same assay, conditions: sixty cell lines in nine cell panels; read-out: GI50 against sixty cell lines in nine cell panels

Row | Structure (SMILES) | GI50 [µM]
29 | COc1cc2c(cc1OCCCN1CCN(c3ncnc4ccccc34)CC1)N=C[C@@H]1CCCN1C2=O [Compound 5a] | < 0.02

same assay, conditions: total cell growth inhibition; human tumor cell lines; 48 h exposure, SRB

Row | Structure (SMILES) | Log10 TGI mean graph midpoint (MG_MID)
30 | COc1cc2c(cc1OCCCN1CCN(c3ncnc4ccccc34)CC1)N=C[C@@H]1CCCN1C2=O [Compound 5a] | −6.66

test system: duplex-form calf thymus DNA (CT-DNA); assay: Thermal denaturation studies with calf thymus DNA; type: binding; conditions: 0 hr, 18 hr and 36 hr at 37° C.
Experimental: Compounds were subjected to thermal denaturation studies with duplex-form calf thymus DNA (CT-DNA) using an adaptation of a reported procedure. Working solutions in aqueous buffer (10 mM NaH2PO4/Na2HPO4, 1 mM Na2EDTA, pH 7.00+0.01) containing CT-DNA (100 μm in phosphate) and the PBD (20 μm) were prepared by addition of concentrated PBD solutions in DMSO to obtain a fixed [PBD]/[DNA] molar ratio of 1:5. The DNA-PBD solutions were incubated at 37° C. for 0, 18, and 36 h prior to analysis. Samples were monitored at 260 nm using a Beckman DU-7400 spectrophotometer fitted with high performance temperature controller, and heating was applied at 1° C. min^−1 in the 40-90° C. range. DNA helix coil transition temperatures (Tm) were obtained from the maxima in the (dA260)/dT derivative plots. Results are given as the mean±standard deviation from three determinations and are corrected for the effects of DMSO co-solvent using a linear correction term. Drug-induced alterations in DNA melting behaviour are given by: ΔTm=Tm(DNA+PBD)−Tm (DNA alone), where the Tm value for the PBD-free CT-DNA is 69.0±0.01.
The DNA binding activity for these novel C8-linked quinazoline-PBD hybrids has been examined by thermal denaturation studies using calf thymus (CT) DNA. […] Data for 5a-d and DC-81 are included in Table 4 for comparison.

Row | Structure (SMILES) | Change of DNA melting (ΔTm) over incubation time
31 | COc1cc2c(cc1OCCCN1CCN(c3ncnc4ccccc34)CC1)N=C[C@@H]1CCCN1C2=O [Compound 5a] | gradually increased

same assay, conditions: [PBD]:[DNA] molar ratio 1:5; CT-DNA 100 μM, ligand 20 μM; pH 7.00; 0 h

Row | Structure (SMILES) | ΔTμ (° C.) after incubation at 37° C. for 0 h [°C]
32 | COc1cc2c(cc1OCCCN1CCN(c3ncnc4ccccc34)CC1)N=C[C@@H]1CCCN1C2=O [Compound 5a] | 9.2

same assay, conditions: [PBD]:[DNA] molar ratio 1:5; CT-DNA 100 μM, ligand 20 μM; pH 7.00; 18 h

Row | Structure (SMILES) | ΔTμ (° C.) after incubation at 37° C. for 18 h [°C]
33 | COc1cc2c(cc1OCCCN1CCN(c3ncnc4ccccc34)CC1)N=C[C@@H]1CCCN1C2=O [Compound 5a] | 10.4
